Legend:
Test in all cases: cell viability (% survival relative to DMSO control, bortezomib = 0%); higher = less cytotoxic
Details in all cases: 72 h
MV4-11 = test system: MV4-11
Summary of the method: (§1)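 Seeding density for each of the 10 AML and 5 CML cell lines was titrated to the linear growth range. Cells went into 384-well plates pre-printed in duplicate with compounds at 1, 10, 100, 1000 or 10000 nM and were held for 72 h at 37 °C with 5% CO2. CellTiter-Glo luminescence then provided the readout. Percent survival is expressed relative to vehicle at 100% and a 10 µM positive control at 0%, averaged over duplicates.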

K-562 = test system: K-562
Summary of the method: as §1

BV-173 = test system: BV-173
Summary of the method: as §1

Mono-Mac-6 = test system: Mono-Mac-6
Summary of the method: as §1

Row | Compound | cell viability (MV4-11; 1 nM) | cell viability (MV4-11; 10 nM) | cell viability (MV4-11; 100 nM) | cell viability (MV4-11; 1000 nM) | cell viability (MV4-11; 10000 nM) | cell viability (K-562; 1 nM) | cell viability (K-562; 10 nM) | cell viability (K-562; 100 nM) | cell viability (K-562; 1000 nM) | cell viability (K-562; 10000 nM) | cell viability (BV-173; 1 nM) | cell viability (BV-173; 10 nM) | cell viability (BV-173; 100 nM) | cell viability (BV-173; 1000 nM) | cell viability (BV-173; 10000 nM) | cell viability (Mono-Mac-6; 1 nM) | cell viability (Mono-Mac-6; 10 nM) | cell viability (Mono-Mac-6; 100 nM) | cell viability (Mono-Mac-6; 1000 nM) | cell viability (Mono-Mac-6; 10000 nM)
1 | OCCN1CCN(CCCN2c3ccccc3Sc3ccc(Cl)cc32)CC1 [Perphenazine] | 102% | 96% | 93.4% | 92.8% | 9.41% | 108% | 97.3% | 81.8% | 92% | 0.308% | 127% | 97.3% | 89.9% | 117% | 23.2% | 97.2% | 106% | 102% | 100% | 54.6%
2 | C[C@]12O[C@H](C[C@]1(O)CO)n1c3ccccc3c3c4c(c5c6ccccc6n2c5c31)CNC4=O [Lestaurtinib] | 73.6% | 7.97% | -0.544% | 0.552% | 0.212% | 94.2% | 94.3% | 64.5% | 13.5% | 2.74% | 93.9% | 65.2% | 28.2% | 22.5% | -0.238% | 83.4% | 54.1% | 4.06% | 0.62% | 0.201%
3 | O=c1c2ccccc2[se]n1-c1ccccc1 [Ebselen] | 93% | 92.5% | 93.8% | 99.7% | 68% | 96.6% | 102% | 91% | 90.5% | 72.3% | 90.5% | 101% | 84.4% | 106% | 83.8% | 99.1% | 93.8% | 103% | 98.1% | 84.6%
4 | O=C(O)C(Cl)Cl [Dichloroacetate] | 99.6% | 91.5% | 83.5% | 98.5% | 102% | 96.5% | 108% | 93% | 96.2% | 105% | 96.9% | 91% | 103% | 95.7% | 93.9% | 92.4% | 92.4% | 113% | 98.8% | 102%
5 | O=P(O)(O)C(O)(Cn1ccnc1)P(=O)(O)O [Zoledronic acid] | 94.7% | 104% | 88.7% | 101% | 81.5% | 105% | 101% | 106% | 98.6% | 102% | 101% | 109% | 88.8% | 97% | 99% | 96.7% | 104% | 91.1% | 91% | 96.7%
6 | CN(C/C=C/C#CC(C)(C)C)Cc1cccc2ccccc12 [Terbinafine] | 93.7% | 92.8% | 102% | 111% | 109% | 97.8% | 98% | 106% | 86.1% | 88.8% | 113% | 92% | 93.3% | 96.1% | 85.3% | 103% | 96.2% | 102% | 98.7% | 91.2%
7 | [N-]=[N+]=CC(=O)CC[C@H](N)C(=O)O [6-Diazo-5-oxo-L-norleucine] | 78.2% | 106% | 108% | 97.1% | 105% | 70.8% | 99.6% | 99.5% | 104% | 92.5% | 94.8% | 89.6% | 107% | 93.4% | 96.5% | 88% | 90.2% | 92.4% | 97.8% | 104%
8 | Cc1ccc(S(=O)(=O)NC2c3ccccc3Oc3ccccc32)cc1 [AH-7614] | 94% | 94.1% | 100% | 94.7% | 93.3% | 92% | 95.9% | 89.9% | 98.1% | 76.4% | 87.1% | 91.2% | 102% | 98.4% | 104% | 101% | 95.7% | 111% | 94.9% | 101%
9 | O=C1Nc2ccccc2/C1=C\NCCc1ccc(O)c(O)c1 [AC1NZZMF] | 113% | 89.4% | 93.8% | 84.9% | 75.7% | 90.1% | 112% | 99.7% | 122% | 96.6% | 99.7% | 103% | 104% | 94.1% | 60.9% | 105% | 102% | 102% | 96.9% | 74.4%
10 | CCOc1ccc(Cc2cc([C@@H]3O[C@H](CO)[C@@H](O)[C@H](O)[C@H]3O)ccc2Cl)cc1 [Dapagliflozin] | 93.7% | 106% | 94.3% | 94.6% | 86.9% | 98.9% | 108% | 81.4% | 101% | 94.6% | 74.5% | 106% | 87% | 98.2% | 82% | 91.5% | 95.1% | 87.5% | 91.7% | 88.8%
11 | C=CCc1ccc2c(c1O)C(=O)c1ccccc1C2=O [R162] | 100% | 97.4% | 102% | 130% | 121% | 99.5% | 95.2% | 94% | 118% | 98.5% | 101% | 97% | 89.9% | 125% | 118% | 101% | 93.4% | 103% | 123% | 115%
12 | C[C@H]1O[C@@H](O[C@H]2[C@@H](O)C[C@H](O[C@H]3[C@@H](O)C[C@H](O[C@H]4CC[C@@]5(C)[C@H](CC[C@@H]6[C@@H]5C[C@@H](O)[C@]5(C)[C@@H](C7=CC(=O)OC7)CC[C@]65O)C4)O[C@@H]3C)O[C@@H]2C)C[C@H](O)[C@@H]1O [Digoxin] | 110% | 114% | 4.71% | 0.26% | 0.435% | 95.2% | 107% | 41.8% | -0.121% | 0.146% | 92.3% | 106% | 3.24% | -0.0612% | -0.063% | 94.6% | 100% | 13% | -0.503% | -0.351%
13 | CC(C)Cc1sc(N)nc1-c1ccc(P(=O)(O)O)o1 | 102% | 101% | 113% | 101% | 87.3% | 104% | 118% | 109% | 103% | 92.5% | 85.3% | 111% | 102% | 95.2% | 86.7% | 97.6% | 85.3% | 95.2% | 101% | 86.6%
14 | O=C(O)c1nn(Cc2ccc(Cl)cc2Cl)c2ccccc12 [Lonidamine] | 78.5% | 96.2% | 88.9% | 98.1% | 106% | 94.2% | 104% | 118% | 98.4% | 82.6% | 104% | 89.4% | 108% | 90.1% | 94.5% | 106% | 111% | 102% | 87.5% | 72.5%
15 | C1CCC(C(CC2CCCCN2)C2CCCCC2)CC1.O=C(O)/C=C\C(=O)O (stereo not given) [Perhexiline] | 100% | 101% | 95.3% | 91.8% | 0.781% | 98.5% | 97.3% | 110% | 103% | 0.792% | 87.1% | 96.1% | 93.8% | 98.9% | 0.141% | 91.8% | 87.4% | 85.9% | 98.6% | 1.23%
16 | C#Cc1cnc(O)nc1O [Eniluracil] | 102% | 112% | 104% | 108% | 106% | 101% | 113% | 113% | 102% | 94.5% | 94.6% | 115% | 106% | 109% | 85.9% | 104% | 125% | 105% | 106% | 97.4%
17 | COc1c(C)c2c(c(O)c1C/C=C(\C)CCC(=O)O)C(=O)OC2 [Mycophenolic acid] | 103% | 94.5% | 90.7% | 26.5% | -0.47% | 91.3% | 102% | 91.5% | 36.5% | 13.6% | 104% | 98.8% | 115% | 29.9% | -0.741% | 104% | 99.7% | 108% | 80% | 16.4%
18 | Cc1noc2c1-c1ccccc1C(c1ccc(Cl)cc1)=N[C@H]2CC(N)=O [CPI-0610] | 86.1% | 84% | 57.2% | 3.4% | 1.28% | 87.7% | 88.2% | 80.7% | 32.1% | 34.5% | 92.3% | 87.8% | 83.4% | 33.5% | 10.9% | 99.7% | 89.3% | 65.7% | 17% | 15.9%
19 | Nc1ncnc2c1ncn2[C@@H]1O[C@H](CSCC[C@H](N)C(=O)O)[C@@H](O)[C@H]1O [S-Adenosyl Homocysteine] | 110% | 113% | 91.8% | 97% | 86.1% | 102% | 104% | 105% | 104% | 98.8% | 98.5% | 83.9% | 99.1% | 104% | 104% | 96.7% | 101% | 96.9% | 104% | 93.7%
20 | O=C(O)CC[C@H](NC(=O)c1ccc([N+](=O)[O-])cc1)C(=O)O [(S)-2-(4-Nitrobenzamido)pentanedioic acid] | 89.6% | 103% | 80% | 96.6% | 85.9% | 76.6% | 91.8% | 84.6% | 102% | 110% | 96.2% | 108% | 92.8% | 104% | 80.7% | 96% | 103% | 94.9% | 97.6% | 98%

From the supplement of paper PMC8671470
